Test [1] deals with T1, human SGLT1 (Homo sapiens, UniProt P13866).
T1 construct: Full-length human SGLT1 cDNA on pDream2.1 expression vector was obtained from GenScript Corporation; host or cells: COS-7 cells (American Type Culture Collection)
T1 sequence (P13866 1-664): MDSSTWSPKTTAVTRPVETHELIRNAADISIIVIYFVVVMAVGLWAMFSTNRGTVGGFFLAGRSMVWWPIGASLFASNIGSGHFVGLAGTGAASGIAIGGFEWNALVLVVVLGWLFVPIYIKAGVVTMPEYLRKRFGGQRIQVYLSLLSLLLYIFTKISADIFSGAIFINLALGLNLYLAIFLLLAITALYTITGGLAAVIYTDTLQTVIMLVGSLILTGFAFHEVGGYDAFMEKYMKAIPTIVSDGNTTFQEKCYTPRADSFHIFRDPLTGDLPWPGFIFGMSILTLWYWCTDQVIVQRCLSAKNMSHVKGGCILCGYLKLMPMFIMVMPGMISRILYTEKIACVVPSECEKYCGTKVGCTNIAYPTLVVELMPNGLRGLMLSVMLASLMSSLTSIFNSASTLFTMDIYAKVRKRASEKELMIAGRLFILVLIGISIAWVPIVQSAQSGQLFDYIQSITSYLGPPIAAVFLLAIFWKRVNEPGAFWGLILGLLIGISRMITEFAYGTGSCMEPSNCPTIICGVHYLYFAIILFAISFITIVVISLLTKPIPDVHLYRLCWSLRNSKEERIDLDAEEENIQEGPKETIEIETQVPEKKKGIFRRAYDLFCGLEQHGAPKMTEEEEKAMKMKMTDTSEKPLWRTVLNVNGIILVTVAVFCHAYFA
Briefly: Methyl-α-D-[U-14C]glucopyranoside uptake assay, COS-7 cells expressing human SGLT1. The test is classed as cell-based. As to conditions: COS-7 cells expressing human SGLT1, 2 h incubation. The protocol: Full-length human SGLT1 cDNA on pDream2.1 expression vector was obtained from GenScript Corporation and propagated in Escherichia coli strain DH5α using Luria-Bertani (LB) medium containing ampicillin. Plasmid DNA was isolated using the QIAGEN Plasmid Midi Kit (QIAGEN Inc.). […] Transfected cells were stored in DMEM containing 10% dimethyl sulfoxide (DMSO) at −80° C.
(§1) Cells expressing SGLT1 or SGLT2 were seeded on 96-well ScintiPlate scintillating plates (PerkinElmer, Inc.) in DMEM containing 10% FBS (1×10^5 cells per well in 100 μL medium) incubated at 37° C. under 5% CO2 for 48 h prior to the assay. Cells were washed twice with 150 μL of either sodium buffer (137 mM NaCl, 5.4 mM KCl, 2.8 mM CaCl2, 1.2 mM MgCl2, 10 mM tris(hydroxymethyl)aminomethane/N2-hydroxyethylpiperazine-N′-ethanesulfonic acid [Tris/Hepes], pH 7.2) or sodium-free buffer (137 mM N-methyl-glucamine, 5.4 mM KCl, 2.8 mM CaCl2, 1.2 mM MgCl2, 10 mM Tris/Hepes, pH 7.2). Test compound in 50 μL each of sodium or sodium-free buffer containing 40 μCi/L methyl-α-D-[U-^14C]glucopyranoside (Amersham Biosciences/GE Healthcare), either with (symbols in parentheses) or without (symbols without parentheses) 25% human serum, was added per well of a 96-well plate and incubated at 37° C. with shaking for either 2 h (SGLT1 assay) or 1.5 h (SGLT2 assay). Cells were washed twice with 150 μL of wash buffer (137 mM N-methylglucamine, 10 mM Tris/Hepes, pH 7.2) and methyl-α-D-[U-^14C]glucopyranoside uptake was quantitated using a TopCount scintillation counter (PerkinElmer, Inc.). Sodium-dependent glucopyranoside uptake was measured by subtracting the values obtained with sodium-free buffer from those obtained using sodium buffer (average of triplicate determinations).

The target of test [2] is T2, human SGLT2 (Homo sapiens, UniProt P31639).
T2 construct: A full-length cDNA clone expressing human SGLT2 (GenScript Corporation) was subcloned
T2 sequence (P31639 1-672): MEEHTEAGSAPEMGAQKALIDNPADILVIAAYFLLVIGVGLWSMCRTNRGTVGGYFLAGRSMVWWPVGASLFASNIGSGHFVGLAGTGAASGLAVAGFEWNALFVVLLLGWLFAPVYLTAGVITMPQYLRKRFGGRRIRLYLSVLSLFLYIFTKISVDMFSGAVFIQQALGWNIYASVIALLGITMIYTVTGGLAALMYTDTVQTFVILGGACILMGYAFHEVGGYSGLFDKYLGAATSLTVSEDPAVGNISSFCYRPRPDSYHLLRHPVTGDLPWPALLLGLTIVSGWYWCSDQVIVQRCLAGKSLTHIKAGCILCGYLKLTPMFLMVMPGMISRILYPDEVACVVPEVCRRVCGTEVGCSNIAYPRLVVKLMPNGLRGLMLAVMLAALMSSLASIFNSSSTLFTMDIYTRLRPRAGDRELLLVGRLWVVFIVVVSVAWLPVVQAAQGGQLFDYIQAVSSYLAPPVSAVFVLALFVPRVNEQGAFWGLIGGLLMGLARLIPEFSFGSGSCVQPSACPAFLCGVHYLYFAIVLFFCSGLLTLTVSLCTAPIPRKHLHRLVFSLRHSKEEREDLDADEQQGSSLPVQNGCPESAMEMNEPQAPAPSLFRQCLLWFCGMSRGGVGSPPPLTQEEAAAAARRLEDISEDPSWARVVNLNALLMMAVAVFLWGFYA
Briefly: Methyl-α-D-[U-14C]glucopyranoside uptake assay, cells stably expressing human SGLT2. The class given is cell-based. As to conditions: HEK293.ETN cells expressing human SGLT2, 1.5 h incubation.
Description: A full-length cDNA clone expressing human SGLT2 (GenScript Corporation) was subcloned into […] and Not I sites of pEAK15 expression vector. Clones harboring the cDNA inserts were identified by restriction analysis.
Plasmid containing human SGLT2 was linearized with Nsi I and purified by agarose gel electrophoresis. Using Lipofectamine 2000 Transfection Reagent (Invitrogen Corporation), DNA was transfected into HEK293.ETN cells and cultured in Dulbecco's Modified Eagle Medium (DMEM) containing 10% fetal bovine serum (FBS) at 37° C. under 5% CO2 for 24 h. Transfectants were selected in the same growth medium supplemented with puromycin (Invitrogen Corporation) for two weeks. Puromycin-resistant cells were recovered and seeded on a fresh 96-well plate (single cell per well) and cultured in the presence of puromycin until cells became confluent. Puromycin-resistant clones were evaluated for SGLT2 activity in the methyl-α-D-[U-^14C]glucopyranoside uptake assay described below.
as §1

Where [3] appears, read: with 25% human serum (symbols in parentheses).
[4] abbreviates: without human serum (symbols without parentheses).

For 10 compounds, IC50 results are on record in US7838498B2, “Benzylic glycoside derivatives and methods of use” (Theracos, Inc., priority 2007, dated 2010).

Structures are written as SMILES. pIC50: −log10 of the molar value.

The pIC50 is the negative decadic logarithm of the IC50, by convention in mol/L. For `CC#CCOCc1cc(Cl)c(Cc2ccc(CC)cc2)cc1[C@@H]1O[C@H](CO)[C@@H](O)[C@H](O)[C@H]1O` [Compound AX, (2S,3R,4R,5S,6R)-2-(2-((but-2-ynyloxy)methyl)-4-chloro-5-(4-ethylbenzyl)phenyl)-6-(hydroxymethyl)tetrahydro-2H-pyran-3,4,5-triol], the pIC50 in test [1] (setting [3]) was below 5.00; in test [2] (setting [3]), above 6.00.

As for `CCOc1ccc(Cc2cc([C@@H]3O[C@H](CO)[C@@H](O)[C@H](O)[C@H]3O)c(CCOCCF)cc2Cl)cc1` [Compound BH, (2S,3R,4R,5S,6R)-2-(4-chloro-5-(4-ethoxybenzyl)-2-(2-(2-fluoroethoxy)ethyl)phenyl)-6-(hydroxymethyl)tetrahydro-2H-pyran-3,4,5-triol], the pIC50 in test [1] (setting [3]) was 5.00 to 6.00; in test [2] (setting [3]) it was above 6.00.

`CCc1ccc(Cc2cc([C@@H]3O[C@H](CO)[C@@H](O)[C@H](O)[C@H]3O)c(COCC(F)F)cc2Cl)cc1` [Compound R, (2S,3R,4R,5S,6R)-2-(4-chloro-2-((2,2-difluoroethoxy)methyl)-5-(4-ethylbenzyl)phenyl)-6-(hydroxymethyl)tetrahydro-2H-pyran-3,4,5-triol]: the pIC50 in test [1] (setting [4]) is below 5.00; in test [2] (setting [4]), above 6.00.

Consider `CCc1ccc(Cc2cc([C@@H]3O[C@H](CO)[C@@H](O)[C@H](O)[C@H]3O)c(COCC(C)(F)F)cc2Cl)cc1` [Compound CB, (2S,3R,4R,5S,6R)-2-(4-chloro-2-((2,2-difluoropropoxy)methyl)-5-(4-ethylbenzyl)phenyl)-6-(hydroxymethyl)tetrahydro-2H-pyran-3,4,5-triol], for which the pIC50 was below 5.00 in test [1] (setting [4]) and above 6.00 in test [2] (setting [4]).

For the compound `C#CCOCCc1cc(Cl)c(Cc2ccc(OCC)cc2)cc1[C@@H]1O[C@H](CO)[C@@H](O)[C@H](O)[C@H]1O` [Compound AO, (2S,3R,4R,5S,6R)-2-(4-chloro-5-(4-ethoxybenzyl)-2-(2-(prop-2-ynyloxy)ethyl)phenyl)-6-(hydroxymethyl)tetrahydro-2H-pyran-3,4,5-triol], the pIC50 is below 5.00 in test [1] (setting [4]) and above 6.00 in test [2] (setting [4]).

For `CCc1ccc(Cc2cc([C@@H]3O[C@H](CO)[C@@H](O)[C@H](O)[C@H]3O)c(CCOCC(F)(F)F)cc2Cl)cc1` [Compound AK, (2S,3R,4R,5S,6R)-2-(4-chloro-5-(4-ethylbenzyl)-2-(2-(2,2,2-trifluoroethoxy)ethyl)phenyl)-6-(hydroxymethyl)tetrahydro-2H-pyran-3,4,5-triol], the pIC50 was below 5.00 in test [1] (setting [4]) and above 6.00 in test [2] (setting [4]).

On to `C=CCOCc1cc(Cl)c(Cc2ccc(OCC)cc2)cc1[C@@H]1O[C@H](CO)[C@@H](O)[C@H](O)[C@H]1O` [Compound AZ, (2S,3R,4R,5S,6R)-2-(2-(allyloxymethyl)-4-chloro-5-(4-ethoxybenzyl)phenyl)-6-(hydroxymethyl)tetrahydro-2H-pyran-3,4,5-triol], for which the pIC50 in test [1] (setting [4]) was below 5.00; in test [2] (setting [4]) it was above 6.00.

Consider `CC#CCOCc1cc(Cl)c(Cc2ccc(O)cc2)cc1[C@@H]1O[C@H](CO)[C@@H](O)[C@H](O)[C@H]1O` [Compound BC, (2S,3R,4R,5S,6R)-2-(2-((but-2-ynyloxy)methyl)-4-chloro-5-(4-hydroxybenzyl)phenyl)-6-(hydroxymethyl)tetrahydro-2H-pyran-3,4,5-triol], for which the pIC50 in test [1] (setting [3]) was below 5.00; in test [2] (setting [3]) it was above 6.00.

Regarding `CCc1ccc(Cc2cc([C@@H]3O[C@H](CO)[C@@H](O)[C@H](O)[C@H]3O)c(CCOCCO)cc2Cl)cc1` [Compound AG, (2S,3R,4R,5S,6R)-2-(4-chloro-5-(4-ethylbenzyl)-2-(2-(2-hydroxyethoxy)ethyl)phenyl)-6-(hydroxymethyl)tetrahydro-2H-pyran-3,4,5-triol], the pIC50 in test [1] (setting [4]) is 5.00 to 6.00; in test [2] (setting [4]), above 6.00.

Regarding `CCc1ccc(Cc2cc([C@@H]3O[C@H](CO)[C@@H](O)[C@H](O)[C@H]3O)c(COCC(C)F)cc2Cl)cc1` (stereo partly drawn) [Compound T, (2S,3R,4R,5S,6R)-2-(4-chloro-5-(4-ethylbenzyl)-2-((2-fluoropropoxy)methyl)phenyl)-6-(hydroxymethyl)tetrahydro-2H-pyran-3,4,5-triol], the results for the pIC50 in test [1] (setting [4]) and in test [2] (setting [4]) were 5.00 to 6.00 and above 6.00, respectively.
